# From publication PMC7377239, “Cardiovascular Effects of Polychlorinated Biphenyls and Their Major Metabolites” (Environmental Health Perspectives, 2020)
# Read-outs that look alike come from different tables or passages of the source.
# Tested on: iCell cardiomyocytes (human iPSC-derived cardiomyocytes)
# Assay: Intracellular Ca2+ flux / beating parameters in iCell cardiomyocytes (FLIPR tetra), 90 min or 24 h
# Assay type: cell-based
# Conditions: Homo sapiens, Cardiomyocyte, 0.00 µM = 100.00; for activity at 0.1 µM: 0.10 µM
# Protocol: Details on cardiomyocyte cell culture are described in detail elsewhere ([Grimm et al. 2015b]; [Sirenko et al. 2013a]). Briefly, tissue-culture treated 384 well plates were gelatinized with 25μL per well of 0.1% (w/v) gelatin in water for 2 h at 37°C and 5% CO2 . Individual vials of cells were thawed for 4 min in a water bath maintained at 37°C. Thawed cells were resuspended in 10ml plating medium containing 1:500 (vol/vol) penicillin/streptomycin solution at room temperature (RT). Live cell counts for each cell suspension were determined by trypan blue staining and cells were further diluted to provide final cell densities of 2×10^5 viable cells/ml. Thus, 5,000 cells suspended in 25μL media were transferred per well after the gelatin solution had been discarded. Cell culture plates were rested for 30 min at RT before they were incubated for 48 h at 37°C and 5% CO2 . Then, a media exchange with 30μL of fresh maintenance medium containing 1:500 (vol/vol) penicillin/streptomycin solution was performed, and cell media were subsequently changed every 48 h for 12 d. On the experiment day, the medium was completely exchanged with either 25μL (for Ca^2+ flux assay) or 40μL (for imaging) of fresh medium.
# Responses of iCell®-cardiomyocytes to drugs and chemicals were evaluated using intracellular Ca^2+ flux measurements ([Grimm et al. 2015b]; [Sirenko et al. 2013b]). For experiments, 20 mM stock solutions of PCBs and PCB metabolites were prepared in DMSO ( 200× ). Chemical working solutions ( 5× ) were prepared using cardiomyocyte maintenance medium and contained 2.5% (vol/vol) DMSO. These chemical master plates were prepared to include all chemicals in concentration–response (0.05, 0.5, 5, 50, and 500μM ). Negative controls included media-only and vehicle control (i.e., 0.5% vol/vol DMSO in cell culture media) wells. Positive assay controls were consistent with previously published reports ([Grimm et al. 2018]) and included TAB ( 50μM ) as a cytotoxic control, and isoproterenol ( 0.1–10μM ), propranolol ( 0.1–5 μM ), cisapride ( 0.01–1μM ), and doxorubicin ( 0.1–5μM ) as chemicals associated with specific effects on beating and ion flux. Each test chemical was screened in triplicate for each concentration.
# Experiments started with the addition of 25μL of prewarmed 2× concentrated calcium dye reagent to sample wells containing 25μL maintenance media. Microplates were then acclimated for 2 h at 37°C. Following equilibration, cardiomyocyte sample wells were treated simultaneously by the addition of 12.5μL of prewarmed 5× chemical solution to iCell®-cardiomyocytes using the automated liquid handler in the FLIPR tetra (Molecular Devices). Treated cell cultures were incubated for either 90 min or 24 h. After the conclusion of the treatment period, the Ca^2+ flux was measured for 100 s at a frequency of 8 Hz using the integrated fluorescence plate reader in the FLIPR tetra (Molecular Devices) using an emission wavelength range of λemission=515–575 nm ( λexcitation=470–495 nm ). Additional instrument settings included exposure time per read of 0.05s, a gain of 2000, an excitation intensity of 30%, and an internal temperature of 37°C.
# Ca^2+ flux data were processed in R studio (version 1.0.136, with R version 3.3.2; R Development Core Team) as described elsewhere ([Blanchette et al. 2019]; [Burnett et al. 2019]). Calculated quantitative metrics included the means and coefficients of variation (CV) of the peak height, which can be indicative of cytotoxicity, inhibition, or stimulation of beating. Means of peak frequency, an indicator of positive or negative […], and CV of peak spacing, an indicator of irregular beating, were also derived from Ca^2+ flux traces. Finally, the mean ratio of the decay over rise time was calculated. Increases in the decay/rise time ratio are reflective of delayed repolarization and are a measure for QT prolongation. […]
# [1] = 1.5 h, read-out: cm.amp.avg.90min
# [2] = 1.5 h, read-out: cm.amp.cv.90min
# [3] = 1.5 h, read-out: cm.decay.rise.90min
# [4] = 1.5 h, read-out: cm.spacing.cv.90min
# [5] = 24 h, read-out: cm.amp.avg.24hrs
# [6] = 24 h, read-out: cm.amp.cv.24hrs
# [7] = 24 h, read-out: cm.decay.rise.24hrs
# [8] = 24 h, read-out: cm.spacing.cv.24hrs
structure (smiles),measurement,setting,value
COc1ccc(-c2cccc(Cl)c2)cc1Cl [4-OMe PCB11],activity at 0.01 µM,[1],85.7%
same,activity at 0.01 µM,[2],106%
same,activity at 0.01 µM,"1.5 h, read-out: cm.bpm.90min",99.1%
same,activity at 0.01 µM,[3],99.7%
same,activity at 0.01 µM,[4],111%
same,activity at 0.1 µM,[1],97.2%
same,activity at 0.1 µM,[2],98.8%
same,activity at 0.1 µM,"1.5 h, read-out: cm.bpm.90min",105%
same,activity at 0.1 µM,[3],99.7%
same,activity at 0.1 µM,[4],106%
same,activity at 1 µM,[1],106%
same,activity at 1 µM,[2],101%
same,activity at 1 µM,"1.5 h, read-out: cm.bpm.90min",96.5%
same,activity at 1 µM,[3],101%
same,activity at 1 µM,[4],145%
same,activity at 10 µM,[1],94.1%
same,activity at 10 µM,[2],109%
same,activity at 10 µM,"1.5 h, read-out: cm.bpm.90min",127%
same,activity at 10 µM,[3],94%
same,activity at 10 µM,[4],102%
same,activity at 100 µM,[1],0%
same,activity at 100 µM,[2],0%
same,activity at 100 µM,"1.5 h, read-out: cm.bpm.90min",0%
same,activity at 100 µM,[3],0%
same,activity at 100 µM,[4],0%
same,activity at 0.01 µM,[5],121%
same,activity at 0.01 µM,[6],82.2%
same,activity at 0.01 µM,"24 h, read-out: cm.bpm.24hrs",110%
same,activity at 0.01 µM,[7],94.8%
same,activity at 0.01 µM,[8],108%
same,activity at 0.1 µM,[5],79.3%
same,activity at 0.1 µM,[6],98.7%
same,activity at 0.1 µM,"24 h, read-out: cm.bpm.24hrs",103%
same,activity at 0.1 µM,[7],98.9%
same,activity at 0.1 µM,[8],101%
same,activity at 1 µM,[5],107%
same,activity at 1 µM,[6],95.6%
same,activity at 1 µM,"24 h, read-out: cm.bpm.24hrs",90.7%
same,activity at 1 µM,[7],111%
same,activity at 1 µM,[8],98.4%
same,activity at 10 µM,[5],92.1%
same,activity at 10 µM,[6],119%
same,activity at 10 µM,"24 h, read-out: cm.bpm.24hrs",123%
same,activity at 10 µM,[7],109%
same,activity at 10 µM,[8],118%
same,activity at 100 µM,[5],0%
same,activity at 100 µM,[6],0%
same,activity at 100 µM,"24 h, read-out: cm.bpm.24hrs",0%
same,activity at 100 µM,[7],0%
same,activity at 100 µM,[8],0%
